# Measurements taken from patent publication US12528815B2, “5-amino-8-(4-pyridyl)-[1,2,4]triazolo[4,3-c]pyrimidin-3-one compounds for use against cancer” (Nxera Pharma UK Limited, priority 2020, dated 2026).
# Columns and labels:
# [1] = target: T1, human adenosine A1 receptor (Homo sapiens, UniProt P30542); test: Inhibition binding assay, human adenosine A1 receptor membranes, [3H]DPCPX; details: 1 nM [3H]DPCPX, 25° C., 1 h; IC50 converted to Ki with Cheng-Prusoff; read-out: A1 pKi (converted)
# T1 construct: expressed in transfected cells; host or cells: HEK293 cells infected with BacMam (the same paragraph also labels the preparation CHO-hA1)
# T1 sequence (P30542 1-326): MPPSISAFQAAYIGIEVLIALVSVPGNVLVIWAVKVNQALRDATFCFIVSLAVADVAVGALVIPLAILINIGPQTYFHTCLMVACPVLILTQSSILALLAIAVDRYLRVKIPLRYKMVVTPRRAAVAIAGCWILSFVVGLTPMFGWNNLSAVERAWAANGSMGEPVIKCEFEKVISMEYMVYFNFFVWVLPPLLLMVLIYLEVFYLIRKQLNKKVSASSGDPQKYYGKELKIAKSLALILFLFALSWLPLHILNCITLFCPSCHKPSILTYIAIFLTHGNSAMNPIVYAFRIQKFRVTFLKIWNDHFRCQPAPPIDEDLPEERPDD
# Procedure, shortened: (§1)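 Membranes from BacMam-infected HEK293 cells (0.2 μg A2A, 1.4 μg A1) incubated 1 h at 25° C with test compound and 1 nM [3H]ZM241385 (A2A; 50 mM Tris-HCl pH 7.4) or [3H]DPCPX (A1; plus 100 mM NaCl, 10 mM MgCl2). Nonspecific: 1 μM CGS15943 or DPCPX. Filtration, scintillation; IC50 converted to Ki via Cheng-Prusoff.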
# [2] = target: T2, human adenosine A2A receptor (Homo sapiens, UniProt P29274); test: Inhibition binding assay, human adenosine A2A receptor membranes, [3H]ZM241385; details: 1 nM [3H]ZM241385, HEK293-hA2A membranes, 25° C., 1 h; IC50 converted to Ki with Cheng-Prusoff; read-out: A2A pKi (converted)
# T2 construct: expressed in transfected cells; host or cells: HEK293 cells infected with BacMam
# T2 sequence (P29274 whole entry): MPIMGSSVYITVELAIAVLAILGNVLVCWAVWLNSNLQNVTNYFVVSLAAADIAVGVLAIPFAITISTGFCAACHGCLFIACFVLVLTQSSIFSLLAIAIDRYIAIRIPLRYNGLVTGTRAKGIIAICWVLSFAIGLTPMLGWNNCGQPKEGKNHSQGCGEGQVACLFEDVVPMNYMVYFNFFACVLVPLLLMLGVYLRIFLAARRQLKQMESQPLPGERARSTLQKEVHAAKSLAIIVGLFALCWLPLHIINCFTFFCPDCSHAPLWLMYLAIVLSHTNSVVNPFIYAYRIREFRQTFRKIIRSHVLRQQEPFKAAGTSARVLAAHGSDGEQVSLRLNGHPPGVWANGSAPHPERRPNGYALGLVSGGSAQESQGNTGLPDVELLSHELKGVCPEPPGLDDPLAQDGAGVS
# Procedure, shortened: as §1
# human CB1 receptor = target: T3, human CB1 receptor (Homo sapiens, UniProt P21554); test: CB1 receptor antagonism, agonist-induced cAMP modulation (HTRF) in transfected CHO cells; format: cell-based; details: read-out: Antag IC50
# T3 construct: expressed in transfected cells; host or cells: CHO cells
# T3 sequence (P21554 whole entry): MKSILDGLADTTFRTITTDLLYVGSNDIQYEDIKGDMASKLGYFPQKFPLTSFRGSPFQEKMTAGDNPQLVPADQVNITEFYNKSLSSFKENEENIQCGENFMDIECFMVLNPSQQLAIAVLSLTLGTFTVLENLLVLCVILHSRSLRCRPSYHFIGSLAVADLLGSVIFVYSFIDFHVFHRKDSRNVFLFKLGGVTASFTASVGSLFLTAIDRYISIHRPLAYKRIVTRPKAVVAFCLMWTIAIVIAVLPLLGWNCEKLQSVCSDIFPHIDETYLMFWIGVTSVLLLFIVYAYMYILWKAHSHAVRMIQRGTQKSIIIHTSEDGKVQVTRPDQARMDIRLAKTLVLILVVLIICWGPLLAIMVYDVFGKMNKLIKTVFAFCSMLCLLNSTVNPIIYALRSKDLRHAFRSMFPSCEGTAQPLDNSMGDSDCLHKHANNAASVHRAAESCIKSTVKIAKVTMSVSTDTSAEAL
# Protocol: Receptor antagonism: Evaluation of the antagonist activity of compounds at the human CB1 receptor expressed in transfected CHO cells, determined by measuring their effects on agonist-induced cAMP modulation using the HTRF detection method.
# Thereafter, the reference agonist CP 55940 and the adenylyl cyclase activator NKH 477 are added at respective final concentrations of 3 nM and 3 μM.
# For basal control measurements, CP 55940 is omitted from the wells containing 3 μM AM 281.
# Following 20 min incubation at 37° C., the cells are lysed and the fluorescence acceptor (D2-labeled cAMP) and fluorescence donor (anti-cAMP antibody labeled with europium cryptate) are added.
# After 60 min at room temperature, the fluorescence transfer is measured at λex=337 nm and λem=620 and 665 nm using a microplate reader (Rubystar, BMG). The cAMP concentration is determined by dividing the signal measured at 665 nm by that measured at 620 nm (ratio).
# The standard reference antagonist is AM 281, which is tested in each experiment at several concentrations to generate a concentration-response curve from which its IC50 value is calculated.
# [3] = target: T4, human CB-1 cannabinoid receptor (Homo sapiens, UniProt P21554); test: CB1 receptor radioligand binding assay, [3H]CP 55940, transfected CHO cell membranes; details: 0.5 nM [3H]CP 55940, CHO membrane homogenates, 120 min at 37° C.
# T4 construct: expressed in transfected cells; host or cells: CHO cells
# T4 sequence (P21554 whole entry): as above
# Protocol: Nonspecific binding is determined in the presence of 10 μM WIN 55212-2.
# Following incubation, the samples are filtered rapidly under vacuum through glass fiber filters (GF/B, Packard) presoaked with 0.3% PEI and rinsed several times with an ice-cold buffer containing 50 mM Tris-HCl (pH 7.4) and 0.5% BSA using a 96-sample cell harvester (Unifilter, Packard). The filters are dried then counted for radioactivity in a scintillation counter (Topcount, Packard) using a scintillation cocktail (Microscint 0, Packard).
# The standard reference compound is CP 55940 which is tested in each experiment at several concentrations to obtain a competition curve from which its IC50 is calculated.
SMILES,Ki [1] [µM],Ki [2] [µM],IC50 (human CB1 receptor) [µM],Ki [3] [µM]
"COc1nc(Cn2nc3c(-c4cc(C)nc(C)c4)c(-c4ccccc4)nc(N)n3c2=O)ccc1F [Example 1-7, 5-amino-8-(2,6-dimethyl-4-pyridyl)-2-[(5-fluoro-6-methoxy-2-pyridyl)methyl]-7-phenyl-[1,2,4]triazolo[4,3-c]pyrimidin-3-one]",0.398,0.00398,3.2,
"CCOC(=O)N(C)CCn1nc2c(-c3cc(C)nc(C)c3)c(-c3ccccc3)nc(N)n2c1=O [Example 2-13, ethyl N-[2-[5-amino-8-(2,6-dimethyl-4-pyridyl)-3-oxo-7-phenyl-[1,2,4]triazolo[4,3-c]pyrimidin-2-yl]ethyl]-N-methyl-carbamate]",0.501,0.0158,> 100,
"COc1cc(-c2c(-c3ccccc3)nc(N)n3c(=O)n(CCC(F)(F)F)nc23)cc(CO)n1 [Example 2-46, 5-amino-8-[2-(hydroxymethyl)-6-methoxy-4-pyridyl]-7-phenyl-2-(3,3,3-trifluoropropyl)-[1,2,4]triazolo[4,3-c]pyrimidin-3-one]",,0.001,> 100,61
"CCN(C)c1nc(N)n2c(=O)n(CCC(F)(F)F)nc2c1-c1cc(C)nc(C)c1 [Example 3-4, 5-amino-8-(2,6-dimethyl-4-pyridyl)-7-[ethyl(methyl)amino]-2-(3,3,3-trifluoropropyl)-[1,2,4]triazolo[4,3-c]pyrimidin-3-one]",> 3.16,0.126,> 100,
"COCCn1nc2c(-c3cc(C)nc(C)c3)c(-c3ccccc3)nc(N)n2c1=O [Example 2-10, 5-amino-8-(2,6-dimethyl-4-pyridyl)-2-(2-methoxyethyl)-7-phenyl-[1,2,4]triazolo[4,3-c]pyrimidin-3-one]",0.251,0.01,> 100,
"Cc1cc(-c2c(-c3ccc(F)cc3)nc(N)n3c(=O)n(CCC(F)(F)F)nc23)cc(CO)n1 [Example 2-64, 5-amino-7-(4-fluorophenyl)-8-[2-(hydroxymethyl)-6-methyl-4-pyridyl]-2-(3,3,3-trifluoropropyl)-[1,2,4]triazolo[4,3-c]pyrimidin-3-one]",> 1.26,0.00158,37.4,
"Cc1cc(-c2c(-c3ccccc3)nc(N)n3c(=O)n(Cc4ccc(F)c(N)n4)nc23)cc(CO)n1 [Example 1-45, 5-amino-2-[(6-amino-5-fluoro-2-pyridyl)methyl]-8-[2-(hydroxymethyl)-6-methyl-4-pyridyl]-7-phenyl-[1,2,4]triazolo[4,3-c]pyrimidin-3-one]",0.126,0.000794,> 100,
"COc1ccc(-c2nc(N)n3c(=O)n(CCC(F)(F)F)nc3c2-c2cc(C)nc(C)c2)cc1 [Example 2-35, 5-amino-8-(2,6-dimethyl-4-pyridyl)-7-(4-methoxyphenyl)-2-(3,3,3-trifluoropropyl)-[1,2,4]triazolo[4,3-c]pyrimidin-3-one]",0.0794,0.00126,,18.8
"Cc1cc(-c2c(-c3ccccc3)nc(N)n3c(=O)n(C[C@@H]4COCCN4C)nc23)cc(C)n1 [Example 2-80, 5-amino-8-(2,6-dimethyl-4-pyridyl)-2-[[(3R)-4-methylmorpholin-3-yl]methyl]-7-phenyl-[1,2,4]triazolo[4,3-c]pyrimidin-3-one]",0.2,0.00794,> 100,
"Cc1cc(-c2c(-c3ccccc3)nc(N)n3c(=O)n(CC(=O)N(C)C)nc23)cc(C)n1 [Example 2-25, 2-[5-amino-8-(2,6-dimethyl-4-pyridyl)-3-oxo-7-phenyl-[1,2,4]triazolo[4,3-c]pyrimidin-2-yl]-N,N-dimethyl-acetamide]",,0.01,> 100,
"CCN(C)CCn1nc2c(-c3cc(C)nc(C)c3)c(-c3ccccc3)nc(N)n2c1=O [Example 2-18, 5-amino-8-(2,6-dimethyl-4-pyridyl)-2-[2-[ethyl(methyl)amino]ethyl]-7-phenyl-[1,2,4]triazolo[4,3-c]pyrimidin-3-one]",,0.00631,> 100,
"Cc1cc(-c2c(-c3ccccc3)nc(N)n3c(=O)n(C[C@H]4CNCCO4)nc23)cc(C)n1 [Example 2-66, (R)-5-amino-8-(2,6-dimethylpyridin-4-yl)-2-(morpholin-2-ylmethyl)-7-phenyl-[1,2,4]triazolo[4,3-c]pyrimidin-3(2H)-one]",1,0.00631,> 100,
"Cc1cc(-c2c(-c3ccccn3)nc(N)n3c(=O)n(CCC(F)(F)F)nc23)cc(C)n1 [Example 2-37, 5-amino-8-(2,6-dimethyl-4-pyridyl)-7-(2-pyridyl)-2-(3,3,3-trifluoropropyl)-[1,2,4]triazolo[4,3-c]pyrimidin-3-one]",> 3.16,0.0316,> 100,
"Cc1cc(-c2c(-c3nc(C)cs3)nc(N)n3c(=O)n(CCC(F)(F)F)nc23)cc(C)n1 [Example 2-44, 5-amino-8-(2,6-dimethyl-4-pyridyl)-7-(4-methylthiazol-2-yl)-2-(3,3,3-trifluoropropyl)-[1,2,4]triazolo[4,3-c]pyrimidin-3-one]",,0.02,> 100,
"Cc1cc(-c2c(-c3ccccc3)nc(N)n3c(=O)n(CCC(F)(F)F)nc23)cc(C)[n+]1[O-] [Example 2-56, 5-amino-8-(2,6-dimethyl-1-oxido-pyridin-1-ium-4-yl)-7-phenyl-2-(3,3,3-trifluoropropyl)-[1,2,4]triazolo[4,3-c]pyrimidin-3-one]",0.316,0.0126,> 100,
"Cc1cc(-c2c(-c3cccnc3)nc(N)n3c(=O)n(CCC(F)(F)F)nc23)cc(C)n1 [Example 2-39, 5-amino-8-(2,6-dimethyl-4-pyridyl)-7-(3-pyridyl)-2-(3,3,3-trifluoropropyl)-[1,2,4]triazolo[4,3-c]pyrimidin-3-one]",> 3.98,0.0501,,
"Cc1cc(-c2c(-c3ccccc3)nc(N)n3c(=O)n(CCCF)nc23)cc(C)n1 [Example 2-8, 5-amino-8-(2,6-dimethyl-4-pyridyl)-2-(3-fluoropropyl)-7-phenyl-[1,2,4]triazolo[4,3-c]pyrimidin-3-one]",0.316,0.00158,,
"COc1cnc(Cn2nc3c(-c4cc(C)nc(CO)c4)c(-c4ccccc4)nc(N)n3c2=O)c(F)c1 [Example 1-47, 5-amino-2-[(3-fluoro-5-methoxy-2-pyridyl)methyl]-8-[2-(hydroxymethyl)-6-methyl-4-pyridyl]-7-phenyl-[1,2,4]triazolo[4,3-c]pyrimidin-3-one]",0.501,0.00794,,
"Cc1cc(-c2c(-c3ccccc3)nc(N)n3c(=O)n(CCC(=O)N(C)C)nc23)cc(C)n1 [Example 2-23, 3-[5-amino-8-(2,6-dimethyl-4-pyridyl)-3-oxo-7-phenyl-[1,2,4]triazolo[4,3-c]pyrimidin-2-yl]-N,N-dimethyl-propanamide]",1,0.0126,,
"C/C=C(\C)c1nc(N)n2c(=O)n(CCC(F)(F)F)nc2c1-c1cc(C)nc(C)c1 [Example 3-10, 5-amino-8-(2,6-dimethyl-4-pyridyl)-7-[(E)-1-methylprop-1-enyl]-2-(3,3,3-trifluoropropyl)-[1,2,4]triazolo[4,3-c]pyrimidin-3-one]",> 3.16,0.01,,
